Measured values taken from US7700584B2 (Hangzhou Minsheng Pharmaceuticals Co., Ltd., priority 2004, dated 2010).

Tests used:
Format in all cases: cell-based
Conditions in all cases: 50 μg/ml
[1] = tested on: A-549 human lung adenocarcinoma; assay: In vitro inhibition rate to tumor cells (MTT), A-549
Method: (§1) (1) Single cell suspension was seeded into 96-well plates (×3) (the cells was diluted in the PRMI-1640 minimum medium to 3×10^4 cells/ml, […] diluted cells/well). […] The experiments were performed in quadruplicate.
(§2) (2) The medium was removed. Solutions of the anti-tumor agents (15 compounds) were prepared in a freshly prepared medium at the concentrations indicated in the following Table. […] of the solution was added into each well. Incubation was continued for 48 hours.
(§3) (3) […] of 2 mg/ml MTT was added into each well, and incubated for 4 hours.
(§4) (4) The medium was removed from the well. The microplates were swiftly turned down to throw-off the medium. […] DMSO was added into each well, and vortexed at room temperature for 10 minutes.
(§5) (5) OD value (λ=570 nm) was measured with an Enzyme-Linked Detector.
(§6) (6) The inhibition rates (IR) of cell growth were respectively calculated based on the following equation: IR(%)=[1−(average OD of the experimental group/average OD of the control group)]×100%

[2] = tested on: Bel-7402 human hepatic carcinoma; assay: In vitro inhibition rate to tumor cells (MTT), Bel-7402
Method: as §1, §2, §3, §4, §5, §6

[3] = tested on: HL-60 human promyelocytic leukemia; assay: In vitro inhibition rate to tumor cells (MTT), HL-60
Method: as §1, §2, §3, §4, §5, §6

[4] = tested on: SMMC-7721 human hepatic carcinoma; assay: In vitro inhibition rate to tumor cells (MTT), SMMC-7721
Method: as §1, §2, §3, §4, §5, §6

[5] = tested on: MCF-7 human mammary adenocarcinoma; assay: In vitro inhibition rate to tumor cells (MTT), MCF-7
Method: as §1, §2, §3, §4, §5, §6

[6] = tested on: Hela human cervical carcinoma; assay: In vitro inhibition rate to tumor cells (MTT), Hela
Method: as §1, §2, §3, §4, §5, §6

[7] = tested on: U-937 human histocytic lymphoma; assay: In vitro inhibition rate to tumor cells (MTT), U-937
Method: as §1, §2, §3, §4, §5, §6

[8] = tested on: LLC mouse Lewis lung carcinoma; assay: In vitro inhibition rate to tumor cells (MTT), LLC
Method: as §1, §2, §3, §4, §5, §6

SMILES	inhibition rate, Results (%) A-549 ([1]; Table 1) [%]	inhibition rate, Results (%) A-549 ([1]; Table 2 (repeated screening)) [%]	inhibition rate, Results (%) Bel-7402 ([2]; Table 1) [%]	inhibition rate, Results (%) Bel-7402 ([2]; Table 2 (repeated screening)) [%]	inhibition rate, Results (%) HL-60 ([3]; Table 1) [%]	inhibition rate, Results (%) HL-60 ([3]; Table 2 (repeated screening)) [%]	inhibition rate, Results (%) SMMC-7721 ([4]; Table 1) [%]	inhibition rate, Results (%) SMMC-7721 ([4]; Table 2 (repeated screening)) [%]	inhibition rate, Results (%) MCF-7 ([5]; Table 1) [%]	inhibition rate, Results (%) MCF-7 ([5]; Table 2 (repeated screening)) [%]	inhibition rate, Results (%) Hela ([6]; Table 1) [%]	inhibition rate, Results (%) Hela ([6]; Table 2 (repeated screening)) [%]	inhibition rate, Results (%) U-937 ([7]; Table 1) [%]	inhibition rate, Results (%) U-937 ([7]; Table 2 (repeated screening)) [%]	inhibition rate, Results (%) LLC ([8]; Table 1) [%]	inhibition rate, Results (%) LLC ([8]; Table 2 (repeated screening)) [%]
CC(C)C1CC23OC1(O)CC(=CO)C2CCC3C (centres unmarked) [Compound 18, Curcumol monohydroxy compound]	−2.24	−0.32	13.58	11.23	4.26	7.32	13.39	0.69	57.89	54.32	60.32	65.03	70.30	69.23	4.18	0.22
CCCCNC1(C)CC2(OC)OC3(CC2C(C)C)C(C)CCC13.Cl (centres unmarked) [Compound 46, Curcumol methyl ether n-butyl amine hydrochloride without double bond]	3.12	3.78	4.55	4.65	−2.60	−4.56	−0.86	−0.45	19.88	14.98	53.12	49.56	16.32	8.65	−12.99	−17.56
COC12CC(=CBr)C3CCC(C)C3(CC1C(C)C)O2 (centres unmarked) [Compound 26, Curcumol methyl ether bromide]	−3.24	−3.12	3.45	−3.45	−0.23	−0.23	0.97	−0.97	43.21	41.21	51.00	56.55	55.32	54.23	11.77	−11.77
CCCCNC=C1CC2(OC)OC3(CC2C(C)C)C(C)CCC13.Cl (centres unmarked) [Compound 28, Curcumol methyl ether n-butyl amine hydrochloride]	1.23	2.31	−2.24	−0.45	2.98	4.32	−3.78	−1.02	32.15	19.98	58.75	60.45	59.32	51.23	0.24	1.23
CCCCNC1(C)CC2(OC)OC3(CC2C(C)C)C(C)CCC13 (centres unmarked) [Compound 45, Curcumol methyl ether n-butyl amine without double bond]	2.10	0.32	3.01	5.02	6.14	1.23	−10.73	−11.23	26.78	20.73	59.45	53.12	32.19	12.32	2.74	1.32
C=CC(=O)OC12CC(=C)C3CCC(C)C3(CC1C(C)C)O2 (centres unmarked) [Compound 22, Curcumol acrylate]	19.23	12.36	12.80	0.23	21.01	21.03	44.39	40.32	88.32	85.02	63.20	61.88	60.32	50.23	−6.01	−6.41
CC(C)C1CC23OC1(O)CC(C)(N1CCNCC1)C2CCC3C.Cl (centres unmarked) [Compound 44, Curcumol piperazine hydrochloride without double bond]	23.01	20.33	−6.54	0.23	3.71	5.37	−10.53	−7.89	25.55	24.11	55.14	50.01	35.64	23.56	23.35	17.565
CC(=O)OC12CC(=O)C3CCC(C)C3(CC1C(C)C)O2 (centres unmarked) [Compound 49, Curzerenone acetate]	5.36	4.23	2.69	14.02	55.35	57.89	−11.3	−1.78	0.65	1.56	79.8	75.65	78.65	75.23	−0.15	0.12
C=C1CC2(OC(C)=O)OC3(CC2C(C)C)C(C)CCC13 (centres unmarked) [Compound 1, Curcumol acetate]	−9.16	−6.32	32.12	25.32	23.12	12.03	23.10	28.23	45.6	41.02	51.23	55.98	45.45	34.26	1.30	1.30
CCOC12CC(=CO[N+](=O)[O-])C3CCC(C)C3(CC1C(C)C)O2 (centres unmarked) [Compound 29, Curcumol ethyl ether nitrate]	3.89	1.23	2.51	3.21	42.12	42.79	4.26	5.68	37.85	30.12	56.98	50.17	25.32	12.32	−10.12	−1.95
CC(C)C1CC23OC1(O)CC(CN1CCNCC1)(N1CCNCC1)C2CCC3C.Cl (centres unmarked) [Compound 42, Curcumol bispiperazine hydrochloride]	10.16	3.12	2.15	14.36	2.73	3.14	6.86	0.79	34.21	30.12	55.64	54.03	−12.5	−1.03	9.99	1.79
